In PMC10542159 (bioRxiv, 2023) one finds IC50, Km and K0.5 data, which are given here for 3 molecules.

In one data set the target is T1, SpeG (Escherichia coli, UniProt P0A951).
T1 sequence (P0A951 1-186): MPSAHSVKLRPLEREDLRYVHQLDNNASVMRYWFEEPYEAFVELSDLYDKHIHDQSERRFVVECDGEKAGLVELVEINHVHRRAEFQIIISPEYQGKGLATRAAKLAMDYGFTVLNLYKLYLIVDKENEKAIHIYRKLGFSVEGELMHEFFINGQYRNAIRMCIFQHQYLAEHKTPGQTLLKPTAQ
Put plainly: continuous spectrophotometric acetyltransferase assay. The class given is biochemical.

Data set [1] deals with T2, spermidine/spermine acetyltransferase 1 (SAT1) (Homo sapiens, UniProt P21673). Put plainly: continuous spectrophotometric acetyltransferase assay, […] spermidine as substrate. The class given is biochemical.
T2 sequence (P21673 whole entry): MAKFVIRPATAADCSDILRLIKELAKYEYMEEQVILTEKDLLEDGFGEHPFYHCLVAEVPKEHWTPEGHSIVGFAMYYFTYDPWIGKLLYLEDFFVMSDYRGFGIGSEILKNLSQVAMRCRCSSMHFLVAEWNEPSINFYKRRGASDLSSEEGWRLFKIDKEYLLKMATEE
The next data set deals with PA1472 (Pseudomonas aeruginosa, UniProt Q9I3P0).
Chain of PA1472 (Q9I3P0 1-184): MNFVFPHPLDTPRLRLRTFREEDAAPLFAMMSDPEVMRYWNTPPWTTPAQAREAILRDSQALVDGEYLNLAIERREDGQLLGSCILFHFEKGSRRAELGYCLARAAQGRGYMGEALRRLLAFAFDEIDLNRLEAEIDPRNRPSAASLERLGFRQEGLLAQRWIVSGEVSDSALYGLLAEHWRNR
Data set [2] addresses T2, spermidine/spermine acetyltransferase 1 (SAT1).
Substrate in data set [3]: NCCCCNCCCN
Put plainly: continuous spectrophotometric enzyme kinetics. Format: biochemical, Escherichia coli. Particulars: acetyl-CoA.

`N=C(N)c1ccc(/N=N/Nc2ccc(C(=N)N)cc2)cc1` [diminazene]: the IC50 is 26.2 ± 3.7 µM against SpeG and 21 ± 0.6 µM in data set [1].

With `NCCCCN` [putrescine], the Km at PA1472 amounted to 30.7 ± 9.9 mM; in data set [2] it was 8.7 ± 2.43 mM.

B1: SpeG (Escherichia coli K-12) (protein)
chain: T1 sequence (P0A951 1-186)
Turning to B1, the K0.5 in data set [3] is listed as 590.1 ± 30.8 µM.
